Legend:
[1] = biological target: ErbB2 with Exon 20 YVMA insertion (HER2-YVMA) (Homo sapiens (Human), UniProt P04626, INS775YVMA); test: Cellular Phosphorylation Assay, Assay 4 (constitutive ErbB2 phosphorylation, NIH 3T3 cells); assay type: cell-based
[2] = biological target: EGFR (Homo sapiens (Human), UniProt P00533); test: ErbB Enzyme Assay (HTRF KinEASE-TK), Assay 3; assay type: biochemical
[3] = biological target: EGFR wild type (EGFR WT) (Homo sapiens (Human), UniProt P00533); test: Cellular Phosphorylation Assay, Assay 5 (EGF-stimulated EGFR phosphorylation, NIH 3T3 cells); assay type: cell-based
Sequence of EGFR wild type (EGFR WT) (P00533 25-1210): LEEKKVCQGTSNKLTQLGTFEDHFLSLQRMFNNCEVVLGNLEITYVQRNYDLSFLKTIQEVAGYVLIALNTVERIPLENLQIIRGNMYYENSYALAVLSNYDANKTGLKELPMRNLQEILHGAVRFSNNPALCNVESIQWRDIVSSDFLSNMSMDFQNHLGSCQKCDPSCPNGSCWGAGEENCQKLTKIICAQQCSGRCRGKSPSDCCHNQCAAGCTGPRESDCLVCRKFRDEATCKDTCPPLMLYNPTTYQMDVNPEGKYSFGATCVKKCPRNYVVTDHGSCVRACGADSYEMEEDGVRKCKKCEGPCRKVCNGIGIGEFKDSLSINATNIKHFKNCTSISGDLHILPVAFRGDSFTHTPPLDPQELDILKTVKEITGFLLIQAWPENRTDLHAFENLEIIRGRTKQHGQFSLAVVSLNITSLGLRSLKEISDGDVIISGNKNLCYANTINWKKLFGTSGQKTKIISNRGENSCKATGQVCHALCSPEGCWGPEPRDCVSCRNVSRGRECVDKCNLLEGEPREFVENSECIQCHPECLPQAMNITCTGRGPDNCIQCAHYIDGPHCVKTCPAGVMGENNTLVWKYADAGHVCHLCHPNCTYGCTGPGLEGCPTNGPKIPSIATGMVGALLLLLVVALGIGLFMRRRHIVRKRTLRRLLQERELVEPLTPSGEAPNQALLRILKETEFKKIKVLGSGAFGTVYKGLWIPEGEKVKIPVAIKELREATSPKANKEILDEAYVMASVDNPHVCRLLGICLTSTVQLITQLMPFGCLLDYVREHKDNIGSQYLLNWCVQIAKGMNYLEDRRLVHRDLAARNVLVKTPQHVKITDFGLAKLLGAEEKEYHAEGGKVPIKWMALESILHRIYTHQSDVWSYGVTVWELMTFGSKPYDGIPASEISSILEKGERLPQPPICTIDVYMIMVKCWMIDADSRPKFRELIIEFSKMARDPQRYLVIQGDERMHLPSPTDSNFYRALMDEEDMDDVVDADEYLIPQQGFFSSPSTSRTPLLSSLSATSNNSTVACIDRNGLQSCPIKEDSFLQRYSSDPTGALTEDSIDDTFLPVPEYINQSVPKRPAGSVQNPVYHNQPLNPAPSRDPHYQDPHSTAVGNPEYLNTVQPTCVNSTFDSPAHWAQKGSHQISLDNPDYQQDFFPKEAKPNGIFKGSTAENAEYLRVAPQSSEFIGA

[4] = biological target: ErbB2 WT (Homo sapiens (Human), UniProt P04626); test: ErbB Enzyme Assay (HTRF KinEASE-TK), Assay 2; assay type: biochemical
Sequence of ErbB2 WT (P04626 23-1255): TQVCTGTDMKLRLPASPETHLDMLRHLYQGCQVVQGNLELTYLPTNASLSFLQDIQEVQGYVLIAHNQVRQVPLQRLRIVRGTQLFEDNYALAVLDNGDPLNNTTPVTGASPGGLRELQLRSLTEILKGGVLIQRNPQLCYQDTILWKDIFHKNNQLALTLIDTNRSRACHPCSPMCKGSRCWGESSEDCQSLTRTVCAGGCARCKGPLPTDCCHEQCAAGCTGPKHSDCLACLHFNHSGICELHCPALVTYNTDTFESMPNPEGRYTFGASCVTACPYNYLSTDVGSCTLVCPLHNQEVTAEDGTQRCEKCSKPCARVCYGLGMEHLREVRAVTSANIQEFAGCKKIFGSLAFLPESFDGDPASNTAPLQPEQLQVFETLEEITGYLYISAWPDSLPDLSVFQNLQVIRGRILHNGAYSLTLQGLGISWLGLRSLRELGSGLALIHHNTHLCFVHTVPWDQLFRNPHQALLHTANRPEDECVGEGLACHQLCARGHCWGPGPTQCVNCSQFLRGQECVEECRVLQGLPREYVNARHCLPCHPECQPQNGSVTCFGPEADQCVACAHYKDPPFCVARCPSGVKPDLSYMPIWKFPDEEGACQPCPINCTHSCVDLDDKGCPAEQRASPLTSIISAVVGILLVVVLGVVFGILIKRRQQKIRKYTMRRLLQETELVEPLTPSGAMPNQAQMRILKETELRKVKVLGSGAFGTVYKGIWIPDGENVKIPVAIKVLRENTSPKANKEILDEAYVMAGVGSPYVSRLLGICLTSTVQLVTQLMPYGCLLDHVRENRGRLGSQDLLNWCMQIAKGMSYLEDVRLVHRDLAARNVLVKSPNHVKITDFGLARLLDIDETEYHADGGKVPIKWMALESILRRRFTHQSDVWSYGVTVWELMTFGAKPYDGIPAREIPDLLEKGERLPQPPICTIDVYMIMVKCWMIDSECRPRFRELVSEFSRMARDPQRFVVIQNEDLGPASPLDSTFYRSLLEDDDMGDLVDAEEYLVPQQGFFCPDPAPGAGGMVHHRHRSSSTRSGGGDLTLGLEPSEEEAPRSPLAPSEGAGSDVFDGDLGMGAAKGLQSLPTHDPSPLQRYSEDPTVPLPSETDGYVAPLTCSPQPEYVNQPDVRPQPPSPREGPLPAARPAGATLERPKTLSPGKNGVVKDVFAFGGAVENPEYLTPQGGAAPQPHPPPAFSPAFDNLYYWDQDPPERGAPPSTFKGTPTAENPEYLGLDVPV

[5] = EGF-stimulated EGFR WT phosphorylation
[6] = cellular ErbB2 YVMA phosphorylation
[7] = cellular EGFR WT phosphorylation, EGF-stimulated

Sequence of ErbB2 with Exon 20 YVMA insertion (HER2-YVMA) (P04626 other isoform, or with tags, fused parts or gaps ins YVMA behind 775): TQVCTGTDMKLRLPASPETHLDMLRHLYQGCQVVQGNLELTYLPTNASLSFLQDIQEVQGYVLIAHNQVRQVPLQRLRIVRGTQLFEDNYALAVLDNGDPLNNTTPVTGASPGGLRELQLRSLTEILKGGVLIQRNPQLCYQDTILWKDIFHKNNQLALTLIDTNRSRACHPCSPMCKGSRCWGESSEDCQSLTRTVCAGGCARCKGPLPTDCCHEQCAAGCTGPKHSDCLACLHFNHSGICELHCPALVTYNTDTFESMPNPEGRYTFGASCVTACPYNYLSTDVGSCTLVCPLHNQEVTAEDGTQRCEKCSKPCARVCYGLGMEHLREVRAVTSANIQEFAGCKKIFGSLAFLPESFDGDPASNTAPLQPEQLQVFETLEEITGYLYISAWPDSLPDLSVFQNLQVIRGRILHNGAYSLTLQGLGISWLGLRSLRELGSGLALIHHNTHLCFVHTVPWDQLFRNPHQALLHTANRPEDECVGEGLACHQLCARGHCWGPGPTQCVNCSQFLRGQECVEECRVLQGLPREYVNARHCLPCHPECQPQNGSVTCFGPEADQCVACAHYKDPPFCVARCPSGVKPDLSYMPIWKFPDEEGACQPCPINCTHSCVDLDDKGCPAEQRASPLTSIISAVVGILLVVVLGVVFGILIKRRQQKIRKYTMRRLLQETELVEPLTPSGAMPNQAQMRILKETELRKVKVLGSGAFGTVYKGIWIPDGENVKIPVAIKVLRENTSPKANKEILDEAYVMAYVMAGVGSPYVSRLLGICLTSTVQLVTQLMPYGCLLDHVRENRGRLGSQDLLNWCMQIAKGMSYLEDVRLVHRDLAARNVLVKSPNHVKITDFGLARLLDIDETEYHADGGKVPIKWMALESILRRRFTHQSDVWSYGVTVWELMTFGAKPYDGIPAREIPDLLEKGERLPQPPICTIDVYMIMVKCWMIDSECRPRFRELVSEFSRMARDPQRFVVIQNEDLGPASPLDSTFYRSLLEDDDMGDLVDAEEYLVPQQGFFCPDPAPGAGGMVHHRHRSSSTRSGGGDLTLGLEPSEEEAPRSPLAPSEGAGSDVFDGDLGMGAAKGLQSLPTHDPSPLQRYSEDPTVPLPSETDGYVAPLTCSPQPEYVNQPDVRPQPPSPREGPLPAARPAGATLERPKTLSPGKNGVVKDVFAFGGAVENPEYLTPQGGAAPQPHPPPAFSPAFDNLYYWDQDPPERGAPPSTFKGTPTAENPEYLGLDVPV
Sequence of EGFR (P00533 25-1210): as the sequence (P00533 25-1210) above

| SMILES | IC50 ([1]; ErbB2 YVMA phosphorylation) [nM] | IC50 ([2]; EGFR enzyme) [nM] | IC50 [3, 5] [nM] | IC50 ([4]; ErbB2 WT enzyme) [nM] | IC50 [1, 6] [nM] | IC50 ([2]; EGFR enzyme assay) [nM] | IC50 [3, 7] [nM] | IC50 ([4]; ErbB2 WT enzyme assay) [nM] |
| --- | --- | --- | --- | --- | --- | --- | --- | --- |
| CC#CC(=O)N1CCN(c2ccc3ncnc(Nc4ccc(Oc5ccn6ncnc6c5)c(C)c4F)c3n2)C[C@@H]1C(F)F (racemic) [Example 168, rac-1-(4-(4-((4-([1,2,4]triazolo[1,5-a]pyridin-7-yloxy)-2-fluoro-3-methylphenyl)amino)pyrido[3,2-d]pyrimidin-6-yl)-2-(difluoromethyl)piperazin-1-yl)but-2-yn-1-one] | 16.5 | 1790 | 356 | 74.3 | – | – | – | – |
| C=CC(=O)N1C[C@@H]2C[C@H](c3ccc4ncnc(Nc5ccc(Oc6ccn7ncnc7c6)c(C)c5F)c4n3)C[C@H]1C2 [Example 391] | – | – | – | – | 19.8 | 368 | 238 | 23.9 |
| C=CC(=O)N1CC2CCC(C1)N2c1ccc2ncnc(Nc3ccc(Oc4cnc5c(c4)ncn5C)c(C)c3F)c2n1 [Example 244, 1-(8-(4-((2-fluoro-3-methyl-4-((3-methyl-3H-imidazo[4,5-b]pyridin-6-yl)oxy)phenyl)amino)pyrido[3,2-d]pyrimidin-6-yl)-3,8-diazabicyclo[3.2.1]octan-3-yl)prop-2-en-1-one] | 16.7 | 178 | 317 | 46.4 | – | – | – | – |
| CC#CC(=O)N1C2CCC1CN(c1ccc3ncnc(Nc4ccc(Oc5ccn6ncnc6c5)c(C)c4F)c3n1)C2 [Example 240, 1-(3-(4-((4-([1,2,4]triazolo[1,5-a]pyridin-7-yloxy)-2-fluoro-3-methylphenyl)amino)pyrido[3,2-d]pyrimidin-6-yl)-3,8-diazabicyclo[3.2.1]octan-8-yl)but-2-yn-1-one] | 92.4 | 4900 | 2020 | 143 | – | – | – | – |
| CC#CC(=O)N1CCN(c2ccc3ncnc(Nc4ccc(Oc5ccn6ncnc6c5)c(C)c4F)c3n2)CC1(C)C [Example 179, 1-(4-(4-((4-([1,2,4]triazolo[1,5-a]pyridin-7-yloxy)-2-fluoro-3-methylphenyl)amino)pyrido[3,2-d]pyrimidin-6-yl)-2,2-dimethylpiperazin-1-yl)but-2-yn-1-one] | 103 | 7630 | ≥ 5000 | 74 | – | – | – | – |
| C=CC(=O)N1CCN(c2ccc3ncnc(Nc4ccc(Oc5ccn6ncnc6c5)c(Cl)c4F)c3n2)C[C@H]1C(F)(F)F [Example 85, (S)-1-(4-(4-((4-([1,2,4]triazolo[1,5-a]pyridin-7-yloxy)-3-chloro-2-fluorophenyl)amino)pyrido[3,2-d]pyrimidin-6-yl)-2-(trifluoromethyl)piperazin-1-yl)prop-2-en-1-one] | 25 | 205 | 446 | 3.1 | – | – | – | – |
| C=CC(=O)N1CCCN(c2ccc3ncnc(Nc4ccc(Oc5ccn6ncnc6c5)c(C)c4F)c3n2)CC1(C)C [Example 259] | – | – | – | – | 78.5 | ≥ 10000 | 3430 | 20.4 |
| C=CC(=O)N1CCN(c2ccc3ncnc(Nc4ccc(Oc5ccn6ncnc6c5)c(C(F)F)c4)c3n2)CC1(C)C [Example 451] | – | – | – | – | 49.3 | 6260 | 3340 | 106 |
| C=CC(=O)N1CCN(c2ccc3ncnc(Nc4ccc(Oc5ccn6ncnc6c5)c(C)c4F)c3n2)C[C@@H]1C(C)(C)C [Example 295] | – | – | – | – | 79.3 | 1030 | ≥ 5000 | 153 |
| C=CC(=O)N1[C@@H]2CC[C@H]1CC(c1ccc3ncnc(Nc4cc(C)c(Oc5ccn6ncnc6c5)cc4F)c3n1)C2 (stereo partly drawn) [Example 194, 1-((1R,5S)-3-(4-((4-([1,2,4]triazolo[1,5-a]pyridin-7-yloxy)-2-fluoro-5-methylphenyl)amino)pyrido[3,2-d]pyrimidin-6-yl)-8-azabicyclo[3.2.1]octan-8-yl)prop-2-en-1-one] | 33.9 | 5800 | 2780 | 171 | – | – | – | – |

Now from value to molecule:

| IC50 ([1]; ErbB2 YVMA phosphorylation) [nM] | IC50 ([2]; EGFR enzyme) [nM] | IC50 [3, 5] [nM] | IC50 ([4]; ErbB2 WT enzyme) [nM] | IC50 [1, 6] [nM] | IC50 ([2]; EGFR enzyme assay) [nM] | IC50 [3, 7] [nM] | IC50 ([4]; ErbB2 WT enzyme assay) [nM] | SMILES |
| --- | --- | --- | --- | --- | --- | --- | --- | --- |
| – | – | – | – | 67.3 | 1720 | 2640 | 28.9 | C=CC(=O)N1C[C@@H]2C[C@H]1CC[C@@H]2c1ccc2ncnc(Nc3ccc(Oc4ccn5ncnc5c4)c(C)c3F)c2n1 [Example 381] |
| 64.6 | ≥ 10000 | ≥ 5000 | 64.2 | – | – | – | – | C=CC(=O)N1[C@H](C)C[C@@H](c2ccc3ncnc(Nc4ccc(Oc5ccc6c(c5)ncn6C)c(C)c4F)c3n2)C[C@@H]1C [Example 166, 1-((2R,4SR,6S)-4-(4-((2-fluoro-3-methyl-4-((1-methyl-1H-benzo[d]imidazol-5-yl)oxy)phenyl)amino)pyrido[3,2-d]pyrimidin-6-yl)-2,6-dimethylpiperidin-1-yl)prop-2-en-1-one] |
| – | – | – | – | 31.1 | 277 | 685 | 20.4 | C=CC(=O)N1C[C@@H]2C[C@H](c3ccc4ncnc(Nc5ccc(Oc6ccc7c(c6)ncn7C)c(C)c5F)c4n3)C[C@H]1C2 [Example 389] |
| 40 | 1380 | 1470 | 423 | – | – | – | – | C=CC(=O)N1CCC(Oc2ccc3ncnc(Nc4ccc(Oc5cnn6ccnc6c5)c(Cl)c4)c3n2)CC1 [Example 54, 1-(4-((4-((3-chloro-4-(imidazo[1,2-b]pyridazin-7-yloxy)phenyl)amino)pyrido[3,2-d]pyrimidin-6-yl)oxy)piperidin-1-yl)prop-2-en-1-one] |
| 17.1 | ≥ 10000 | ≥ 5000 | 33.4 | – | – | – | – | C=CC(=O)N1CCN(c2ccc3ncnc(Nc4cc(Cl)c(Oc5ccc6c(c5)ncn6C)cc4F)c3n2)CC1(C)C [Example 76, 1-(4-(4-((5-chloro-2-fluoro-4-((1-methyl-1H-benzo[d]imidazol-5-yl)oxy)phenyl)amino)pyrido[3,2-d]pyrimidin-6-yl)-2,2-dimethylpiperazin-1-yl)prop-2-en-1-one] |
| 48.4 | ≥ 10000 | ≥ 5000 | 432 | – | – | – | – | C=CC(=O)N1CCC(Oc2ccc3ncnc(Nc4ccc(Oc5cnc6cn(C)nc6c5)c(C)c4)c3n2)CC1 [Example 14, 1-(4-((4-((3-methyl-4-((2-methyl-2H-pyrazolo[4,3-b]pyridin-6-yl)oxy)phenyl)amino)pyrido[3,2-d]pyrimidin-6-yl)oxy)piperidin-1-yl)prop-2-en-1-one] |
| 1140 | ≥ 10000 | ≥ 5000 | 1290 | – | – | – | – | C=CC(=O)N1CCC(Oc2ccc3ncnc(Nc4cc(Cl)c(Oc5ccc6cn(C)nc6c5)cc4Cl)c3n2)CC1 [Example 2, 1-(4-((4-((2,5-dichloro-4-((2-methyl-2H-indazol-6-yl)oxy)phenyl)amino)pyrido[3,2-d]pyrimidin-6-yl)oxy)piperidin-1-yl)prop-2-en-1-one] |
| – | – | – | – | 50.5 | ≥ 10000 | ≥ 5000 | 212 | C=CC(=O)N1C[C@H]2CC[C@@H]1[C@@H](c1ccc3ncnc(Nc4cc(C)c(Oc5cnc6c(c5)ncn6C)cc4F)c3n1)C2 [Example 425] |
| 193 | ≥ 10000 | ≥ 5000 | 1030 | – | – | – | – | C=CC(=O)N1CCC(Oc2ccc3ncnc(Nc4ccc(Oc5ccc6cn(C)nc6c5)c(F)c4)c3n2)CC1 [Example 12, 1-(4-((4-((3-fluoro-4-((2-methyl-2H-indazol-6-yl)oxy)phenyl)amino)pyrido[3,2-d]pyrimidin-6-yl)oxy)piperidin-1-yl)prop-2-en-1-one] |
| 35.2 | 650 | 853 | 21.1 | – | – | – | – | C=CC(=O)N1CC(c2ccc3ncnc(Nc4ccc(Oc5ccc6c(c5)ncn6C)c(C)c4F)c3n2)CCC12CC2 (stereo not shown) [Example 197, 1-(6-(4-((2-fluoro-3-methyl-4-((1-methyl-1H-benzo[d]imidazol-5-yl)oxy)phenyl)amino)pyrido[3,2-d]pyrimidin-6-yl)-4-azaspiro[2.5]octan-4-yl)prop-2-en-1-one] |
| 10.9 | 3630 | 449 | 76.5 | – | – | – | – | C=CC(=O)N1CCN(c2ccc3ncnc(Nc4ccc(Oc5ccn6ncnc6c5)c(C)c4F)c3n2)C[C@H]1C [Example 89, (R)-1-(4-(4-((4-([1,2,4]triazolo[1,5-a]pyridin-7-yloxy)-2-fluoro-3-methylphenyl)amino)pyrido[3,2-d]pyrimidin-6-yl)-2-methylpiperazin-1-yl)prop-2-en-1-one] |
| 18.8 | 8790 | 1510 | 42.3 | – | – | – | – | C=CC(=O)N1CCN(c2ccc3ncnc(Nc4ccc(Oc5ccn6ncnc6c5)c(C)c4F)c3n2)C[C@@H]1C1CC1 (racemic) [Example 163, rac-1-(4-(4-((4-([1,2,4]triazolo[1,5-a]pyridin-7-yloxy)-2-fluoro-3-methylphenyl)amino)pyrido[3,2-d]pyrimidin-6-yl)-2-cyclopropylpiperazin-1-yl)prop-2-en-1-one] |
| 67.7 | 1610 | ≥ 5000 | 10.7 | – | – | – | – | C=CC(=O)N1CCC[C@@H](c2ccc3ncnc(Nc4ccc(Oc5ccn6ncnc6c5)c(C)c4F)c3n2)CC1 (single isomer, unassigned) [Example 210] |
| 91.3 | 2290 | ≥ 5000 | 58 | – | – | – | – | C=CC(=O)N1CC[C@@H]2C[C@@H](c3ccc4ncnc(Nc5cc(C)c(Oc6ccn7ncnc7c6)cc5F)c4n3)C[C@@H]21 (single isomer, unassigned) [Example 224] |
| – | – | – | – | 9.5 | 462 | 276 | 14.9 | C=CC(=O)N1CCN(c2ccc3ncnc(Nc4ccc(Oc5ccn6ncnc6c5)c(Cl)c4F)c3n2)C[C@H]1C(C)C [Example 291] |

Reference: patent US12447153B2, “HER2 mutation inhibitors” (Array BioPharma Inc., priority 2021, dated 2025)
